From PMC9785280, “Synthesis, Antiproliferative Evaluation and QSAR Analysis of Novel Halogen- and Amidino-Substituted Benzothiazoles and Benzimidazoles” (International Journal of Molecular Sciences, 2022)

Assays:
[1] = system: MDCK1 (Madin–Darby canine kidney) cells; test: MTT antiproliferative assay, non-tumor MDCK1 cells; assay type: cell-based; details: Canis lupus familiaris, MDCK1, 72 h, mean ± SD of three independent experiments, normal cells
Procedure: (§1) The growth inhibition activity was assessed according to the slightly modified procedure performed at the National Cancer Institute, Developmental Therapeutics Program.
(§2) Examined compounds were dissolved in DMSO (1 × 10^−2 M). The experiments were carried out on seven human tumor cell lines and two normal cell lines. The following cell lines were used: HeLa (human cervical adenocarcinoma; purchased from ATCC), CaCo-2 (human colorectal adenocarcinoma), HuT78 (T-cell lymphoma), THP-1 (acute monocytic leukemia), SW620 (colorectal adenocarcinoma, metastatic), MDA-MB-231 (human breast adenocarcinoma), HL60 (promyelocytic leukemia cell line), foreskin fibroblast cells (BJ) and MDCK1 (Madine–Darby canine kidney fibroblast like cells). MDCK1 cells were used between 24 and 26 passages.
(§3) Adherent cells were cultured in the Dulbecco’s modified Eagle medium—DMEM (Gibco, EU) supplemented with 10 % heat-inactivated fetal bovine serum (FBS, Gibco, EU), 2 mM glutamine, and 100 U/0.1 mg penicillin/streptomycin. Cells on suspension were cultured in RPMI 1640 (Gibco, EU) medium supplemented with 10 % FBS (Gibco, EU), 2 mM glutamine, 1 mM sodium pyruvate, 10 mM HEPES. Cells were grown in humidified atmosphere under the conditions of 37 °C/5% of CO2 gas in the CO2 incubator (IGO 150 CELLlife^TM, JOUAN, Thermo Fisher Scientific, Waltham, MA, USA). A erythrosin B (Sigma-Aldrich, St. Louis, MO, USA) dye exclusion method was used to assess cell viability before plating.
(§4) Adherent cells (HeLa, CaCo-2, MCF-7 and MDCK-1) were plated in 96-well flat bottom plates (Greiner, Frickenhausen, Austria) at a concentration of 2 × 10^4 cells/mL. Suspension cells (THP-1 and HuT78) were plated in 96-well microtiter plates (Sarstead, Newton, USA) at a concentration of 1 × 10^5 cells/mL. Twenty-four hours later, cells were treated with test agents in […] 10-fold dilutions ([…] to 10^−4 M) and incubated for further 72 h. Working dilutions were freshly prepared on the day of testing. The solvent was also tested for eventual inhibitory activity by adjusting its concentration to be the same as in working concentrations. After 72 h of incubation, the cell growth rate was evaluated by performing the MTT assay, which detects dehydrogenase activity in viable cells. For this purpose, upon completion of the incubation period, growth medium was discarded and 50 μL of MTT was added to each well at a concentration of 5 mg/mL. After four hours of incubation at 37 °C, water insoluble MTT-formazan crystals were dissolved in 150 μL of dimethyl-sulfoxide (DMSO) for adherent cells, and in 10 % SDS with 0.01 M/L HCl for cells grown in suspension. The absorbance (OD, optical density) was measured on a microplate reader (iMark, BIO RAD, Hercules, CA, USA) at 595 nm.
(§5) Percent of life cells was calculated as follows: % = OD (sample)–OD (background)/OD (control)–OD (background) × 100.
(§6) Optical density (OD) of background for adherent cells is the OD of MTT solution and DMSO; OD (background) for suspension cells is OD of the culture medium with MTT and 10% SDS with 0.01 M/L HCl; OD (control) is the OD of the cells growth without tested compounds.
(§7) Calculation of GI50 value curves and QC analysis is performed by using the Excel tools and GraphPadPrism software (La Jolla, CA), v. 5.03. Briefly, individual concentration effect curves are generated by plotting the logarithm of the concentration of tested compounds(X) vs. corresponding percent inhibition values (Y) using least squares fit. The best fit GI50 values are calculated using Log (inhibitor) versus normalized response—Variable slope equation, where Y Ľ 100/(1 ţ 10 ((LogIC50 _ X) * HillSlope)). QC criteria parameters (Z0, S:B, R2, HillSlope) were checked for every GI50 curve.

human fibroblasts (BJ) = test: MTT antiproliferative assay, normal BJ fibroblasts; assay type: cell-based; details: Homo sapiens, Fibroblast, 72 h, MTT, mean ± SD of three independent experiments; normal cells
Procedure: as §1, §2, §3, §4, §5, §6, §7

[2] = system: HeLa (cervical adenocarcinoma) cells; test: MTT antiproliferative assay, HeLa; assay type: cell-based; details: Homo sapiens, 72 h, mean ± SD of three independent experiments
Procedure: as §1, §2, §3, §4, §5, §6, §7

[3] = system: HuT78 (T-cell lymphoma) cells; test: MTT antiproliferative assay, HuT78; assay type: cell-based, human; details: for IC50: Homo sapiens, HuT78, 72 h, 72 h, MTT, mean ± SD of three independent experiments; for SI (BJ) HuT78: SI = IC50 BJ / IC50 HuT78; for SI (MDCK) HuT78: SI = IC50 MDCK1 / IC50 HuT78
Procedure: as §1, §2, §3, §4, §5, §6, §7

[4] = system: CaCo-2 (colon adenocarcinoma) cells; test: MTT antiproliferative assay, CaCo-2; assay type: cell-based, human; details: for IC50: Homo sapiens, Caco-2, 72 h, MTT, mean ± SD of three independent experiments
Procedure: as §1, §2, §3, §4, §5, §6
as §7, with “The best fit GI50 values are calculated using Log (inhibitor) versus normalized response—Variable slope equation, where Y Ľ 100/(1 ţ 10 ((LogIC50 _ X) * HillSlope)).” left out

| SMILES | IC50 [1] | IC50 (human fibroblasts (BJ)) | IC50 [2] | antiproliferative effect on HuT78 cells (in words) [3] | IC50 [3] | IC50 [4] | melting point | SI (BJ) HuT78 [3] | SI (MDCK) HuT78 [3] | SI (MDCK) CaCo-2 ([4]; SI = IC50 MDCK1 / IC50 CaCo-2) |
| --- | --- | --- | --- | --- | --- | --- | --- | --- | --- | --- |
| O=c1[nH]cc(F)c(=O)[nH]1 [5-FU, 5-Fluorouracil, reference compound] | 55 ± 8.7 µM | 74 ± 3.1 µM | 8.2 ± 1.9 µM | did not exhibit antiproliferative effect | > 100 µM |  |  |  |  |  |
| O=C(COc1ccc(-c2nc3ccc(Cl)cc3s2)cc1)c1ccccc1 [15a, 6-Chloro-2-(4-(2-oxo-2-phenylethoxy)phenyl)benzothiazole] | > 100 µM | > 100 µM | > 100 µM |  | > 100 µM | > 100 µM | 192 to 195 °C |  |  |  |
| O=C(COc1ccc(-c2nc3ccc(Cl)cc3s2)cc1F)c1ccccc1 [15b, 6-Chloro-2-(3-fluoro-4-(2-oxo-2-phenylethoxy)phenyl)benzothiazole] | > 100 µM | > 100 µM | > 100 µM |  | > 100 µM | > 100 µM | 192 to 195 °C |  |  |  |
| COc1cc(-c2nc3ccc(Cl)cc3s2)ccc1OCC(=O)c1ccccc1 [15c, 6-Chloro-2-(3-methoxy-4-(2-oxo-2-phenylethoxy)phenyl)benzothiazole] | 79.3 ± 14.4 µM | > 100 µM | > 100 µM |  | > 100 µM | > 100 µM | 163 to 166 °C |  |  |  |
| O=C(COc1ccc(-c2nc3ccc(F)cc3s2)cc1)c1ccccc1 [16a, 6-Fluoro-2-(4-(2-oxo-2-phenylethoxy)phenyl)benzothiazole] | 87.3 ± 6.9 µM | > 100 µM | > 100 µM |  | > 100 µM | > 100 µM | 164 to 167 °C |  |  |  |
| Clc1ccc2nc(-c3ccc(OCc4ccccn4)cc3)sc2c1 [18a] | 17.6 ± 5.7 µM | > 100 µM | 42.4 ± 7.5 µM |  | 13.2 ± 1.2 µM | > 100 µM |  | 3.2 |  |  |
| O=C(COc1ccc(-c2nc3ccc(C4=NCCCN4)cc3s2)cc1)c1ccccc1 [38a] | 27.1 ± 3.4 µM | 22.6 ± 4.6 µM | 19.7 ± 3.1 µM |  | 16.2 ± 5.5 µM | 25.4 ± 3.5 µM |  | 1.39 | 1.67 |  |
| c1cc(-c2nc3ccc(C4=NCCCN4)cc3s2)ccc1OCc1c[nH]nn1 [40a] | 59.4 ± 18.8 µM | > 100 µM | > 100 µM |  | > 100 µM | > 100 µM |  |  |  |  |
| Fc1cc(-c2nc3ccc(C4=NCCCN4)cc3s2)ccc1OCc1c[nH]nn1 [40b] | > 100 µM | > 100 µM | > 100 µM |  | 37.3 ± 12.8 µM | > 100 µM |  | 2.68 | 2.68 |  |
| COc1cc(-c2nc3ccc(C4=NCCCN4)cc3s2)ccc1OCc1c[nH]nn1 [40c] | > 100 µM | > 100 µM | > 100 µM |  | > 100 µM | > 100 µM |  |  |  |  |
| c1ccc(Cn2cc(COc3ccc(-c4nc5ccc(C6=NCCCN6)cc5s4)cc3)nn2)cc1 [41a] | 58.2 ± 17.3 µM | 27.3 ± 6 µM | 25.8 ± 0.8 µM |  | 4.1 ± 3.6 µM | 29.2 ± 4.2 µM |  | 6.65 | 14.19 | 1.99 |
| COc1cc(-c2nc3ccc(C4=NCCCN4)cc3s2)ccc1OCc1cn(Cc2ccccc2)nn1 [41c] | > 100 µM | > 100 µM | > 100 µM |  | > 100 µM | > 100 µM |  |  |  |  |
| Fc1cc(-c2nc3ccc(C4=NCCN4)cc3[nH]2)ccc1OCc1ccccn1 [43b] | > 100 µM | > 100 µM | > 100 µM |  | 43.3 ± 4.4 µM | > 100 µM |  | 2.3 | 2.3 |  |
| COc1cc(-c2nc3ccc(C4=NCCN4)cc3[nH]2)ccc1OCc1ccccn1 [43c] | 63.4 ± 8.9 µM | 30.9 ± 8.7 µM | > 100 µM |  | 17.7 ± 6.1 µM | > 100 µM |  | 1.75 | 3.58 |  |
| c1cc(-c2nc3ccc(C4=NCCN4)cc3[nH]2)ccc1OCc1c[nH]nn1 [44a] | > 100 µM | 73.3 ± 3.2 µM | > 100 µM |  | 89.2 ± 20.6 µM | > 100 µM |  |  | 1.2 |  |
| Fc1cc(-c2nc3ccc(C4=NCCN4)cc3[nH]2)ccc1OCc1c[nH]nn1 [44b] | > 100 µM | 45.1 ± 20.9 µM | > 100 µM |  | 65.6 ± 17.3 µM | > 100 µM |  |  | 1.52 |  |
| COc1cc(-c2nc3ccc(C4=NCCN4)cc3[nH]2)ccc1OCc1c[nH]nn1 [44c] | > 100 µM | > 100 µM | > 100 µM |  | > 100 µM | > 100 µM |  |  |  |  |
| c1cc(-c2nc3ccc(C4=NCCN4)cc3[nH]2)ccc1OCc1cn(CCN2CCOCC2)nn1 [46a] | > 100 µM | > 100 µM | > 100 µM |  | 63 ± 15.1 µM | > 100 µM |  | 1.59 | 1.59 |  |
| O=C(COc1ccc(-c2nc3ccc(C4=NCCN4)cc3[nH]2)cc1)N1CCOCC1 [47a] | > 100 µM | > 100 µM | > 100 µM |  | > 100 µM | > 100 µM |  |  |  |  |
| O=C(COc1ccc(-c2nc3ccc(C4=NCCN4)cc3[nH]2)cc1F)N1CCOCC1 [47b] | > 100 µM | > 100 µM | > 100 µM |  | > 100 µM | > 100 µM |  |  |  |  |
| c1cc(-c2nc3ccc(C4=NCCN4)cc3[nH]2)ccc1OCCN1CCOCC1 [48a] | > 100 µM | > 100 µM | > 100 µM |  | > 100 µM | > 100 µM |  |  |  |  |
| Fc1cc(-c2nc3ccc(C4=NCCN4)cc3[nH]2)ccc1OCCN1CCOCC1 [48b] | > 100 µM | > 100 µM | > 100 µM |  | > 100 µM | > 100 µM |  |  |  |  |
| COc1cc(-c2nc3ccc(C4=NCCN4)cc3[nH]2)ccc1OCCN1CCOCC1 [48c] | > 100 µM | > 100 µM | > 100 µM |  | 69.6 ± 25.9 µM | > 100 µM |  | 1.44 | 1.44 |  |
| CCN(CC)CCOc1ccc(-c2nc3ccc(C4=NCCN4)cc3[nH]2)cc1 [49a] | > 100 µM | 80.4 ± 9.9 µM | > 100 µM |  | > 100 µM | > 100 µM |  |  |  |  |
| CCN(CC)CCOc1ccc(-c2nc3ccc(C4=NCCN4)cc3[nH]2)cc1F [49b] | 82.9 ± 6.6 µM | 64.8 ± 9.2 µM | > 100 µM |  | > 100 µM | > 100 µM |  |  |  |  |
| CCN(CC)CCOc1ccc(-c2nc3ccc(C4=NCCN4)cc3[nH]2)cc1OC [49c] | > 100 µM | > 100 µM | > 100 µM |  | > 100 µM | > 100 µM |  |  |  |  |
